According to PubChem BioAssay (NCI):
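Protocol summary: plate cells (96-well), add compound at 5 concentrations, incubate 48 h, interpolate endpoints linearly. GI50 is the concentration that inhibits growth by half. TGI: total growth inhibition.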

Experiments:
Test in all cases: NCI-60 cell line screen, 48 h
[1] = test system: NCI-H23 lung
[2] = test system: SW-620 colon
[3] = test system: HOP-62 NSCLC
[4] = test system: SF-268 CNS
[5] = test system: HCT-116 colon
[6] = test system: OVCAR-8 ovarian
[7] = test system: MOLT-4 leukemia
[8] = test system: LOX IMVI melanoma
[9] = test system: NCI-H522 lung
[10] = test system: SR leukemia

Row | Structure (SMILES) | TGI [1] | TGI [2] | TGI [3] | TGI [4] | TGI [5] | TGI [6] | TGI [7] | TGI [8] | TGI [9] | GI50 [1] | GI50 [9] | GI50 [2] | GI50 [3] | GI50 [4] | GI50 [5] | GI50 [6] | GI50 [7] | GI50 [8] | TGI [10] | GI50 [10]
1 | Cc1cccc2nc3cccc(C(=O)NCCN(C)C)c3nc12 | 3.47 µM | 11.2 µM | 1.39 µM | 9.2 µM | 10.8 µM | 15.8 µM | > 100 µM | 11.6 µM |  |  |  |  |  |  |  |  |  |  |  | 
2 | O=S(=O)(C/C(=N\O)c1ccccc1)c1ccccc1 | > 100 µM | > 100 µM | > 100 µM | > 100 µM | > 100 µM | > 100 µM | > 100 µM | > 100 µM | > 100 µM |  |  |  |  |  |  |  |  |  |  | 
3 | COc1ccc(OC)c(Nc2nc(-c3c(C)nc4sccn34)cs2)c1 | > 100 µM | > 100 µM | 63.4 µM | > 100 µM | > 100 µM | > 100 µM | > 100 µM | > 100 µM | > 100 µM | 51.1 µM | 52.6 µM | > 100 µM | 8.46 µM | 29.7 µM | > 100 µM | 7.22 µM | > 100 µM | > 100 µM |  | 
4 | O=C1CC(c2ccc(Cl)cc2)Oc2ccccc21 (stereo not drawn) | 40.2 µM | > 100 µM | 56 µM | > 100 µM | > 100 µM | > 100 µM |  | 93.6 µM |  |  |  |  |  |  |  |  |  |  | 28 µM | 
5 | C=C1[C@@H]([C@@]2(C)C=CC(=O)C(C)(C)[C@@H]2CC(=O)OC)CC[C@@]2(C)C(c3ccoc3)OC(=O)[C@H]3O[C@]132 (stereo partly drawn) | > 100 µM | > 100 µM |  | > 100 µM | > 100 µM | > 100 µM | > 100 µM | > 100 µM | > 100 µM |  |  |  |  |  |  |  |  |  |  | 
6 | Cc1cc2c(C)n(Cc3ccc(Cl)cc3Cl)nc2c(C(=O)O)c1C | > 100 µM | > 100 µM | > 100 µM | > 100 µM | > 100 µM | > 100 µM | > 100 µM | > 100 µM |  |  |  |  |  |  |  |  |  |  |  | 
7 | O=[N+]([O-])c1ccc(Cl)cc1C1SCc2nc3ccccc3n21 (stereo not drawn) | > 100 µM | > 100 µM | > 100 µM | > 100 µM | > 100 µM | > 100 µM | > 100 µM |  | 80.1 µM |  |  |  |  |  |  |  |  |  |  | 
8 | CCCNc1nc2ccccc2c2c1S(=O)(=O)c1ccc(Cl)cc1C2=O | > 50 µM |  | > 50 µM | > 50 µM | > 50 µM | > 50 µM | > 50 µM | > 50 µM | > 50 µM | 1.66 µM | 1.17 µM |  | 1.77 µM | 1.35 µM | 0.425 µM | 1.58 µM | 1.54 µM | 1.28 µM | > 50 µM | 0.79 µM
9 | COc1cc2c3c(n(CCCN=[N+]=[N-])c(=O)c2cc1OC)-c1ccc(N(C)C)cc1C3=O | > 100 µM | > 100 µM | > 100 µM | > 100 µM |  | > 100 µM | > 100 µM | > 100 µM | > 100 µM | > 100 µM | > 100 µM | > 100 µM | > 100 µM | > 100 µM |  | > 100 µM | > 100 µM | > 100 µM |  | 
10 | O=S(=O)(NCCNc1nccc(-c2c(-c3ccc(F)cc3)nc3sccn23)n1)c1ccccc1 | > 100 µM | > 100 µM | > 100 µM | > 100 µM | 14.9 µM | > 100 µM | 57.5 µM | 93.1 µM |  | 16.2 µM |  | 6.55 µM | 26.4 µM | 6.63 µM | 2.36 µM | 4.17 µM | 4.84 µM | 3.41 µM | > 100 µM | 3.46 µM
11 | CC12Oc3ccc4ccccc4c3CC1Cc1c(ccc3ccccc13)O2 (stereo not drawn) | > 100 µM | > 100 µM | > 100 µM | > 100 µM | > 100 µM | > 100 µM |  | > 100 µM | > 100 µM |  |  |  |  |  |  |  |  |  |  | 
12 | Cc1cccc(C(C)(C)C)c1NC(=O)CC1Sc2ccccc2NC1=O (stereo not drawn) | > 100 µM | 32.6 µM | > 100 µM | > 100 µM | 45.1 µM | > 100 µM | > 100 µM |  | > 100 µM |  |  |  |  |  |  |  |  |  |  | 
13 | COc1ccc2nc(NC(=O)C(=O)C(C#N)c3ccc(Cl)c(Cl)c3)sc2c1 (stereo not drawn) | > 100 µM | > 100 µM | > 100 µM | > 100 µM | > 100 µM | > 100 µM |  | > 100 µM | > 100 µM |  |  |  |  |  |  |  |  |  |  | 
14 | Cc1ccccc1-n1c(C)nc(-c2ccccc2)cc1=O | > 100 µM | > 100 µM | > 100 µM | > 100 µM | > 100 µM | > 100 µM | > 100 µM | > 100 µM | > 100 µM |  |  |  |  |  |  |  |  |  |  | 
15 | CN(/N=N/c1nc(OCc2ccccc2)c2[nH]cnc2n1)C(=O)Oc1ccc([N+](=O)[O-])cc1 | 16.4 µM | 26.1 µM | > 50 µM | 29.5 µM | 16 µM | 26.3 µM |  | 10.8 µM |  | 8.44 µM |  | 9.02 µM | 28.8 µM | 9.44 µM | 8.68 µM | 9.81 µM |  | 1.14 µM | > 50 µM | 26.1 µM
